Assay results reported in patent EP0167935A2, “Anthracycline derivatives, a process for the production thereof, a pharmaceutical composition containing the same and their use as medicaments” (priority 1984, dated 1986).
In brackets after ≈: the same amount, converted by molar mass. Like-named read-outs stand apart in the source and are kept apart here.

Experiments:
Leukemia L 1210 = test: Anti-tumor effect for mice bearing Leukemia L 1210 (survival); assay type: in vivo, CDF1 mice; conditions: injected peritoneally for 10 days; for Percent survival (%): L 1210 1 x 10^5 cells/mouse i.p., 30 days observation, saline control = 100; for Toxicity remark in the percent survival cell: CDF1 mice bearing L 1210
Description: (2) Anti-tumor effect for mice bearing Leukemia L 1210
A group of CDF1 mice were intraperitoneally transplanted with suspensions of leukemic cells L 1210 (1 x 10^5 cells/mouse). Immediately after the transplantation, a.25 mℓ each of the test compounds was injected peritoneally into the mice for 10 days. Observation was made for 30 days, and the percent survival for each test compound was determined, with 100 representing the number of days which the control mice group administered physiological saline survived.

leukemic cells P 388 = test: Inhibition of the growth of cultured leukemic cells P 388 (two-day culture); assay type: cell-based; conditions: Mus musculus, P388, 48 h
From the text: (1) Activity of inhibiting the growth of cultures leukemic cells P 3FB8

[1] = concentration giving 50% inhibition of growth of a two-day culture of P 388 cells vs untreated group, read-out: IC50

## CCC1(O)CC(OC2CC(N(C)C)C(OC3CC4OC5CC(=O)C(C)OC5OC4C(C)O3)C(C)O2)c2cc3c(c(O)c2C1OC1CC(N(C)C)C(OC2CC4OC5CC(=O)C(C)OC5OC4C(C)O2)C(C)O1)C(=O)c1c(O)ccc(O)c1C3=O (centres unmarked) [Compound 1-HSR, 1-hydroxyserirubicin]
Leukemia L 1210; Dose 0.0313 mg/kg/day
  Percent survival (%): 108%
Leukemia L 1210; Dose 0.0625 mg/kg/day
  Percent survival (%): 127%
Leukemia L 1210; Dose 0.125 mg/kg/day
  Percent survival (%): 151%
Leukemia L 1210; Dose 0.25 mg/kg/day
  Percent survival (%): 145%
Leukemia L 1210; Dose 0.5 mg/kg/day
  Percent survival (%): 139%
Leukemia L 1210; Dose 1 mg/kg/day
  Toxicity remark in the percent survival cell: Toxin
  Percent survival (%): 114%
Leukemic cells P 388
  IC50: 12 ng/mL (≈ 10.2 nM)

## CCC1(O)CC(OC2CC(N(C)C)C(O)C(C)O2)c2c(O)c3c(c(O)c2C1OC1CC(N(C)C)C(OC2CC4OC5CC(=O)C(C)OC5OC4C(C)O2)C(C)O1)C(=O)c1cccc(O)c1C3=O (centres unmarked) [DTR-B/7de-dF-CB, ditrisarubicin B/7 de-dF-CB]
Leukemic cells P 388
  IC50: 21 ng/mL (≈ 22.3 nM)

## CCC1(O)CC(OC2CC(N(C)C)C(OC3CC4OC5CC(=O)C(C)OC5OC4C(C)O3)C(C)O2)c2c(O)c3c(c(O)c2C1OC1CC(N(C)C)C(O)C(C)O1)C(=O)c1cccc(O)c1C3=O (centres unmarked) [DTR-B/10de-dF-CB]
Leukemic cells P 388; [1]
  IC50: 9 ng/mL (≈ 9.56 nM)

## CCC1(O)CC(OC2CC(N(C)C)C(OC3CCC(OC4C=CC(=O)C(C)O4)C(C)O3)C(C)O2)c2c(O)c3c(c(O)c2C1OC1CC(N(C)C)C(OC2CC4OC5CC(=O)C(C)OC5OC4C(C)O2)C(C)O1)C(=O)c1cccc(O)c1C3=O (centres unmarked) [DTR-CR, ditrisarubicin CR]
Leukemic cells P 388
  IC50: 4 ng/mL (≈ 3.43 nM)

## CCC1(O)CC(OC2CC(N(C)C)C(OC3CC4OC5CC(=O)C(C)OC5OC4C(C)O3)C(C)O2)c2c(O)c3c(c(O)c2C1OC1CC(N(C)C)C(OC2CCC(OC4CCC(=O)C(C)O4)C(C)O2)C(C)O1)C(=O)c1cccc(O)c1C3=O (centres unmarked) [DTR-D, ditrisarubicin D]
Leukemia L 1210; Dose 0.0078 mg/kg/day
  Percent survival (%): 97%
Leukemia L 1210; Dose 0.0156 mg/kg/day
  Percent survival (%): 102%
Leukemia L 1210; Dose 0.0313 mg/kg/day
  Percent survival (%): 125%
Leukemia L 1210; Dose 0.0625 mg/kg/day
  Percent survival (%): 142%
Leukemia L 1210; Dose 0.125 mg/kg/day
  Percent survival (%): 114%
Leukemia L 1210; Dose 0.25 mg/kg/day
  Percent survival (%): 131%
Leukemic cells P 388
  IC50: 4 ng/mL (≈ 3.43 nM)

## CCC1(O)CC(OC2CC(N(C)C)C(OC3CC(O)C(OC4CCC(=O)C(C)O4)C(C)O3)C(C)O2)c2c(O)c3c(c(O)c2C1OC1CC(N(C)C)C(OC2CC(O)C(OC4CCC(=O)C(C)O4)C(C)O2)C(C)O1)C(=O)c1cccc(O)c1C3=O (centres unmarked) [DTR-E, ditrisarubicin E]
Leukemia L 1210; Dose 0.0078 mg/kg/day
  Percent survival (%): 102%
Leukemia L 1210; Dose 0.0156 mg/kg/day
  Percent survival (%): 102%
Leukemia L 1210; Dose 0.0313 mg/kg/day
  Percent survival (%): 119%
Leukemia L 1210; Dose 0.0625 mg/kg/day
  Percent survival (%): 163%
Leukemia L 1210; Dose 0.125 mg/kg/day
  Percent survival (%): 156%
Leukemia L 1210; Dose 0.25 mg/kg/day
  Percent survival (%): 106%
Leukemic cells P 388; [1]
  IC50: 7 ng/mL (≈ 5.91 nM)

## CCC1(O)CC(OC2CC(N(C)C)C(OC3CC4OC5CC(=O)C(C)OC5OC4C(C)O3)C(C)O2)c2c(O)c3c(c(O)c2C1OC1CC(N(C)C)C(OC2CCC(OC4CCC(O)C(C)O4)C(C)O2)C(C)O1)C(=O)c1cccc(O)c1C3=O (centres unmarked) [DTR-F, ditrisarubicin F]
Leukemia L 1210; Dose 0.0078 mg/kg/day
  Percent survival (%): 101%
Leukemia L 1210; Dose 0.0156 mg/kg/day
  Percent survival (%): 120%
Leukemia L 1210; Dose 0.0313 mg/kg/day
  Percent survival (%): 127%
Leukemia L 1210; Dose 0.0625 mg/kg/day
  Percent survival (%): 133%
Leukemia L 1210; Dose 0.125 mg/kg/day
  Percent survival (%): 152%
Leukemia L 1210; Dose 0.25 mg/kg/day
  Toxicity remark in the percent survival cell: Toxin
  Percent survival (%): 133%
Leukemic cells P 388
  IC50: 3.8 ng/mL (≈ 3.25 nM)

## CCC1(O)CC(OC2CC(N(C)C)C(OC3CC4OC5CC(=O)C(C)OC5OC4C(C)O3)C(C)O2)c2c(O)c3c(c(O)c2C1OC1CC(N(C)C)C(OC2CC(O)C(OC4CCC(O)C(C)O4)C(C)O2)C(C)O1)C(=O)c1cccc(O)c1C3=O (centres unmarked) [DTR-G, ditrisarubicin G]
Leukemia L 1210; Dose 0.0078 mg/kg/day
  Percent survival (%): 109%
Leukemia L 1210; Dose 0.0156 mg/kg/day
  Percent survival (%): 111%
Leukemia L 1210; Dose 0.0313 mg/kg/day
  Percent survival (%): 117%
Leukemia L 1210; Dose 0.0625 mg/kg/day
  Percent survival (%): 163%
Leukemia L 1210; Dose 0.125 mg/kg/day
  Percent survival (%): 138%
Leukemia L 1210; Dose 0.25 mg/kg/day
  Toxicity remark in the percent survival cell: Toxin
  Percent survival (%): 125%
Leukemic cells P 388
  IC50: 4.5 ng/mL (≈ 3.8 nM)

## CCC1(O)CC(OC2CC(N(C)C)C(OC3CC4OC5CC(=O)C(C)OC5OC4C(C)O3)C(C)O2)c2c(O)c3c(c(O)c2C1OC1CC(N(C)C)C(OC2CC(O)C(O)C(C)O2)C(C)O1)C(=O)c1cccc(O)c1C3=O (centres unmarked) [DTR-G/de-Ro]
Leukemic cells P 388
  IC50: 12 ng/mL (≈ 11.2 nM)

## CCC1(O)CC(OC2CC(N(C)C)C(OC3CC(O)C(OC4CCC(O)C(C)O4)C(C)O3)C(C)O2)c2c(O)c3c(c(O)c2C1OC1CC(N(C)C)C(OC2CC4OC5CC(=O)C(C)OC5OC4C(C)O2)C(C)O1)C(=O)c1cccc(O)c1C3=O (centres unmarked) [DTR-GR, ditrisarubicin GR]
Leukemic cells P 388
  IC50: 4.2 ng/mL (≈ 3.54 nM)

## CCC1(O)CC(OC2CC(N(C)C)C(OC3CC(O)C(O)C(C)O3)C(C)O2)c2c(O)c3c(c(O)c2C1OC1CC(N(C)C)C(OC2CC4OC5CC(=O)C(C)OC5OC4C(C)O2)C(C)O1)C(=O)c1cccc(O)c1C3=O (centres unmarked) [DTR-GR/de-Ro]
Leukemic cells P 388
  IC50: 20 ng/mL (≈ 18.7 nM)
